US8202909B2, “Method for treating central nervous system disorders” (Sucampo AG, priority 2005, dated 2012)
Marks after values point to notes of the source that are not given here.

Tests used:
Crj: CD (SD) male rats = assay: Cerebral infarct volume after transient focal cerebral ischemia (MCA occlusion-reperfusion) in rats; format: in vivo; conditions: for Infarct volume: brain removed 24 hours after MCA occlusion, mean±S.E., n=10
Procedure: Seven-week-old Crj: CD (SD) male rats were housed in polymethylpentene cages in an animal room controlled for room temperature (22-26° C.), relative humidity (47-60%), ventilation rate (10-20 times/hour) and light-dark cycle (lighting: 7:00 to 19:00) for at least 6 days. The animals were allowed free access to pellet diet and water from water bottles. Animals judged to be in good health were used in this study.
Rats were anesthetized by inhalation of a gas mixture of 2% isoflurane and N2O:O2 (=7:3), stabilized in the supine position, and maintained in the anesthetized state by inhalation of the above gas mixture. The animals were monitored for rectal temperature using a temperature probe during the period of the surgical operation. When a fall in body temperature was observed, an incandescent lamp was used to maintain the temperature at around 37° C. The right common carotid artery, external carotid artery, and internal carotid artery were exposed for occluding the middle cerebral artery (hereafter, MCA). The right common carotid artery and the external carotid artery were ligatured using sutures (5-0), and a 19 mm-long segment of No. 4-0 nylon suture which were precoated with silicone was inserted into the MCA through the bifurcation of the external and internal carotid arteries to occlude the MCA. At 2 hours after the MCA occlusion, the suture was removed and the blood flow in the MCA was restored.
Compound A was dissolved in a vehicle (physiological saline containing 1% polysorbate 80), and was administered intravenously to the animals at a volume of 2 mL/kg immediately after the MCA occlusion-reperfusion and 30 minutes after the MCA occlusion-reperfusion. The control group received an equal volume of the vehicle in the same manner.
At 24 hours after MCA occlusion, the animals were decapitated and the brains were immediately isolated. […] Graphic analysis (Adobe Photoshop™, version 3.0 J; Adobe Systems Incorporated, Color Count 0.3b; K&M Software Corporation) was applied to the photographs, and the infarct area was measured. […]

ddY mice [1] = assay: Persistent time of gasping movements after decapitation in mice, subcutaneous (Example 1); format: in vivo; conditions: for Persistent Time of Gasping Movements: decapitated 30 minutes after administration, Mean ± SE, n=10
Procedure: (§1) Four-week-old male ddY mice were housed in aluminum cages in an animal room controlled for temperature (24±3° C.), relative humidity (55±10%), ventilation rate (˜12 times/hour) and light-dark cycle (fluorescent lighting: 8:00 to 20:00) for at least 7 days. The animals were allowed free access to pellet diet and tap water from water bottles. Healthy animals without abnormalities in general signs were used in this study.
11-deoxy-13,14-dihydro-15-keto-16,16-difluoro-PGE1 (hereinafter, “Compound A”) was dissolved in a vehicle (physiologic saline containing 0.01% polysorbate 80 and 0.5% ethanol), and was administered subcutaneously to the animals. The control group received an equal amount of the vehicle in the same manner.
(§2) The animals were decapitated at 30 minutes after the administration, and the persistent time of gasping movements was measured.

[2] = system: Human vascular endothelial cell cultures; assay: Recovery of transendothelial electrical resistance (TEER) after oxygen deprivation; format: cell-based; conditions: 5 nM with 0.1% DMSO, after 30 minutes oxygen deprivation in nitrogen atmosphere; FIG. 1
Procedure: FIG. 1 is a graph showing the effect of Compound A on Recovery of Transendothelial Electrical Resistance (TEER). Human vascular endothelial cell cultures were brought to confluence, as measured by transendothelial electrical resistance (TEER). The cell cultures were then deprived of oxygen for 30 minutes by incubation in a nitrogen atmosphere. The cells were then either treated with 0.1% DMSO or with 5 nM Compound A with 0.1% DMSO. Statistical significance is indicated at all data points after drug treatment. N=10 cells.
Human vascular endothelial cell cultures were brought to confluence, as measured by transendothelial electrical resistance (TEER). The cell cultures were then deprived of oxygen for 30 minutes by incubation in a nitrogen atmosphere. The cells were then either treated with 0.1% DMSO or with 5 nM Compound A with 0.1% DMSO final.

ddY mice [3] = assay: Persistent time of gasping movements after decapitation in mice, oral administration (Example 2); format: in vivo; conditions: for Persistent Time of Gasping Movements: fasted mice, decapitated 30 minutes after administration, Mean ± SE, n=10; for Effect on persistent time of gasping movement after decapitation (in words): oral administration at 100, 300 and 1000 μg/kg
Procedure: as §1, with “study. The animals were fasted for 20 hours or longer with free access to water before use.” for “study.”
Compound A and 11-deoxy-13,14-dihydro-15-keto-16,16-difluoro-PGE1 methyl ester (hereinafter, “Compound B”) were dissolved in a vehicle (physiologic saline containing 0.01% polysorbate 80 and 0.5% ethanol), and was administered orally to the animals. The control group received an equal amount of the vehicle in the same manner.
as §2

[4] = system: Alzheimer's disease model animals; assay: Morris water maze test in Alzheimer's disease model animals (bilateral ibotenic acid lesions of basal ganglia); format: in vivo, rats
Procedure: Alzheimer's disease model animals were prepared by bilateral ibotenic acid lesions of basal ganglia in rats. Briefly, rats were anesthetized with pentobarbital sodium and placed in a small animal stereotaxic apparatus. Bilateral infusions of 5 μg/0.5 μL of ibotenic acid into the basal ganglia were made at a rate of 0.1 μL/min via a syringe pump and a stainless steel cannula (outer diameter: 0.5 mm). Stereotaxic coordinates were as follows: −0.8 mm posterior from bregma, 2.6 mm lateral (both sides) from midline, and 7.4 mm depth from the bone surface. Animals in sham group received only anesthesia. Animals were then housed with free access to food and water for the rest of the study.
Compound A was orally administered for 14 days after surgery to the model animals. Control group received the same amount of the vehicle.
Morris water maze test was performed to evaluate the effect of test compound. The water maze was a circular pool (painted gray, 1.48 m in diameter, 0.33 m high). The pool contained water that was maintained at a temperature of 17-18° C. During testing in the water maze, a platform, 12 cm in diameter, was located 2 cm below the water in one of four locations (zone 4) in the pool, approximately 38 cm from the sidewall. A light bulb was placed around the pool as a cue external to the maze. The animals received 2 trials per day from 10 days after the initiation of the administration with Compound A or the vehicle. The rats were trained to locate the hidden escape platform, which remained in a fixed location throughout testing. Trials lasted a maximum of 90 sec. The latency to find the submerged platform was recorded and used as a measure of acquisition of the task. The animals were tested in this way for 4 days (total 8 trials), and then they received a probe trial on the 5th day. […] The time the rat spent searching for the platform in the training quadrant (zone 4): i.e., the previous location of the platform was recorded and used as an index of memory.

[5] = system: Human microvascular endothelial cells (adult) (HMVEC-AD); assay: Recovery of ATP level after nitrogen atmosphere (luciferin-luciferase assay); format: cell-based; conditions: 5 nM, after 30 minutes nitrogen atmosphere, compared to cells treated with 0.01% DMSO alone; FIG. 2
Procedure: FIG. 2 is a graph showing the effect of Compound A on Recovery of ATP Level. Human microvascular endothelial cells (adult) (HMVEC-AD) were grown to confluence. The cells were then treated for 30 minutes with a nitrogen atmosphere and returned to normal oxygen. ATP levels were monitored at the indicated time points using a luciferin-luciferase assay system (ATPlite, Perkin Elmer). ATP levels are given as relative luminescence. N=6 cells at each time point.
Human microvascular endothelial cells (adult) (HMVEC-AD) were grown to confluence. The cells were then treated for 30 minutes with a nitrogen atmosphere and returned to normal oxygen. ATP levels were monitored at the indicated time points using a luciferin-luciferase assay system (ATPlite, Perkin Elmer).

ddY mice [6] = assay: Persistent time of gasping movements after decapitation in mice, subcutaneous (Example 3); format: in vivo; conditions: 300 μg/kg s.c.
Procedure: as §1
11-deoxy-13,14-dihydro-16,16-difluoro-PGE1 (hereinafter, “Compound C”) was dissolved in a vehicle (physiologic saline containing 0.01% polysorbate 80 and 0.5% ethanol), and was administered subcutaneously to the animals. The control group received an equal amount of the vehicle in the same manner.
as §2

| Compound | Infarct volume (Crj: CD (SD) male rats; 0.05 mg/kg i.v. immediately after and 30 minutes after MCA occlusion-reperfusion, P<0.05) | Infarct volume (Crj: CD (SD) male rats; 0.5 mg/kg i.v. immediately after and 30 minutes after MCA occlusion-reperfusion, P<0.01) | Effect on cerebral infarct volume after ischemia (in words) (Crj: CD (SD) male rats; 0.05 and 0.5 mg/kg i.v., compared with vehicle group) | Persistent Time of Gasping Movements (ddY mice [1]; 10 μg/kg s.c.) | Persistent Time of Gasping Movements (ddY mice [1]; 30 μg/kg s.c.) | Persistent Time of Gasping Movements (ddY mice [1]; 100 μg/kg s.c., p<0.05 vs vehicle) | Persistent Time of Gasping Movements (ddY mice [1]; 300 μg/kg s.c., p<0.01 vs vehicle) | Effect on persistent time of gasping movement after decapitation (in words) (ddY mice [1]; 10, 30, 100 and 300 μg/kg s.c.) | Recovery of TEER (in words) [2] | Persistent Time of Gasping Movements (ddY mice [3]; 100 μg/kg p.o.) | Persistent Time of Gasping Movements (ddY mice [3]; 300 μg/kg p.o.) | Persistent Time of Gasping Movements (ddY mice [3]; 1000 μg/kg p.o.) | Effect on persistent time of gasping movement after decapitation (in words) (ddY mice [3]) | Goal latency (8th trial) ([4]; 1 mg/kg orally for 14 days after surgery, mean ± SE, n=10, p<0.01 vs vehicle) | Time spent in zone 4 ([4]; 1 mg/kg orally for 14 days after surgery, probe trial 90 sec, mean ± SE, n=10, p<0.05 vs vehicle) | Effect on deficit in learning and memory (in words) ([4]; orally for 14 days after surgery, Morris water maze) | Recovery of ATP level (in words) [5] | Effect on persistent time of gasping movement after decapitation (in words) (ddY mice [6]) | Persistent Time of Gasping Movements (ddY mice [6]; decapitated 30 minutes after administration, Mean ± SE, n=10, p<0.01 vs vehicle) |
| --- | --- | --- | --- | --- | --- | --- | --- | --- | --- | --- | --- | --- | --- | --- | --- | --- | --- | --- | --- |
| CCCCC(F)(F)C(=O)CCC1CCC(=O)C1CCCCCCC(=O)O (centres unmarked) [Compound A, 11-deoxy-13,14-dihydro-15-keto-16,16-difluoro-PGE1] | 208.2 ± 22.2* mm^3 | 172.9 ± 25.5** mm^3 | significantly reduced the cerebral infarct volume | 21.7 ± 0.6 s | 22.0 ± 0.4 s | 23.2 ± 0.8 s | 23.6 ± 0.6 s | dose-dependent prolongation | immediate recovery of TEER | 18.8 ± 0.5 s | 18.9 ± 0.3 s | 20.2 ± 0.6 s | dose-dependent prolongation | 51.5 ± 13.7 s | 20.8 ± 3.6 s | significant reversals of the deficit in learning and memory | ATP levels returned more quickly |  |  |
| CCCCC(F)(F)C(=O)CCC1CCC(=O)C1CCCCCCC(=O)OC (centres unmarked) [Compound B, 11-deoxy-13,14-dihydro-15-keto-16,16-difluoro-PGE1 methyl ester] |  |  |  |  |  |  |  |  |  | 17.6 ± 0.5 s | 19.1 ± 0.5 s | 19.1 ± 0.4 s | dose-dependent prolongation |  |  |  |  |  |  |
| CCCCC(F)(F)C(O)CCC1CCC(=O)C1CCCCCCC(=O)O (centres unmarked) [Compound C, 11-deoxy-13,14-dihydro-16,16-difluoro-PGE1] |  |  |  |  |  |  |  |  |  |  |  |  |  |  |  |  |  | significant prolongation | 25.2 ± 0.7 s |
